Test results published in ChEMBL document CHEMBL2401616, “A novel amalgamation of 1,2,3-triazoles, piperidines and thieno pyridine rings and evaluation of their antifungal activity” (2013).
Converted amounts (≈) assume the structure as drawn. The source made the active and inactive calls. The calls are words filed in the database; no cut-off is given here.

How the values were obtained:
Fusarium oxysporum [1] = assay: Antifungal activity against Fusarium oxysporum NCIM 1332 assessed as growth inhibition up to 200 ug/mL by agar dilution method; assay type: functional, organism-based
Candida albicans = assay: Antifungal activity against Candida albicans NCIM 3471 assessed as growth inhibition by agar dilution method; assay type: functional
Aspergillus niger [2] = assay: Antifungal activity against Aspergillus niger NCIM 1196 assessed as growth inhibition up to 200 ug/mL by agar dilution method; assay type: functional, organism-based
Cryptococcus neoformans [3] = assay: Antifungal activity against Cryptococcus neoformans NCIM 576 assessed as growth inhibition by agar dilution method; assay type: functional
Aspergillus flavus [4] = assay: Antifungal activity against Aspergillus flavus NCIM 539 assessed as growth inhibition by agar dilution method; assay type: functional
Fusarium oxysporum [5] = assay: Antifungal activity against Fusarium oxysporum NCIM 1332 assessed as growth inhibition by agar dilution method; assay type: functional
Aspergillus niger [6] = assay: Antifungal activity against Aspergillus niger NCIM 1196 assessed as growth inhibition by agar dilution method; assay type: functional
Cryptococcus neoformans [7] = assay: Antifungal activity against Cryptococcus neoformans NCIM 576 assessed as growth inhibition up to 200 ug/mL by agar dilution method; assay type: functional, organism-based
Aspergillus flavus [8] = assay: Antifungal activity against Aspergillus flavus NCIM 539 assessed as growth inhibition up to 200 ug/mL by agar dilution method; assay type: functional, organism-based

| SMILES | growth inhibition (GI) (Fusarium oxysporum [1]) | MIC (Candida albicans) [µg/mL] | growth inhibition (GI) (Aspergillus niger [2]) | MIC (Cryptococcus neoformans [3]) [µg/mL] | MIC (Aspergillus flavus [4]) [µg/mL] | MIC (Fusarium oxysporum [5]) [µg/mL] | MIC (Aspergillus niger [6]) [µg/mL] | growth inhibition (GI) (Cryptococcus neoformans [7]) | growth inhibition (GI) (Aspergillus flavus [8]) |
| --- | --- | --- | --- | --- | --- | --- | --- | --- | --- |
| O=C(c1ccccc1)N1CCC(n2cc(CN3CCc4sccc4C3)nn2)CC1 | inactive | 90 (≈ 221 µM) | inactive | 100 (≈ 245 µM) | 65 (≈ 159 µM) | – | – | – | – |
| CC(C)C(=O)N1CCC(n2cc(CN3CCc4sccc4C3)nn2)CC1 | – | 100 (≈ 268 µM) | – | 150 (≈ 402 µM) | 35 (≈ 93.7 µM) | 100 (≈ 268 µM) | 47.5 (≈ 127 µM) | – | – |
| CCC(=O)N1CCC(n2cc(CN3CCc4sccc4C3)nn2)CC1 | – | 50 (≈ 139 µM) | inactive | – | 30 (≈ 83.4 µM) | 60 (≈ 167 µM) | – | inactive | – |
| c1ccc(CN2CCC(n3cc(CN4CCc5sccc5C4)nn3)CC2)cc1 | – | 50 (≈ 127 µM) | – | 90 (≈ 229 µM) | 60 (≈ 152 µM) | 75 (≈ 191 µM) | 100 (≈ 254 µM) | – | – |
| Cc1ccc(S(=O)(=O)N2CCC(n3cc(CN4CCc5sccc5C4)nn3)CC2)cc1 | – | 60 (≈ 131 µM) | – | 40 (≈ 87.4 µM) | 45 (≈ 98.3 µM) | 70 (≈ 153 µM) | 37.5 (≈ 81.9 µM) | – | – |
| CCN1CCC(n2cc(CN3CCc4sccc4C3)nn2)CC1 | – | 90 (≈ 272 µM) | – | 150 (≈ 453 µM) | 35 (≈ 106 µM) | 100 (≈ 302 µM) | 47.5 (≈ 143 µM) | – | – |
| O=C(c1ccc(Cl)cc1)N1CCC(n2cc(CN3CCc4sccc4C3)nn2)CC1 | – | 45 (≈ 102 µM) | – | 45 (≈ 102 µM) | 40 (≈ 90.5 µM) | 40 (≈ 90.5 µM) | 42.5 (≈ 96.2 µM) | – | – |
| c1cc2c(s1)CCN(Cc1cn(C3CCNCC3)nn1)C2 | – | 50 (≈ 165 µM) | – | 100 (≈ 330 µM) | 60 (≈ 198 µM) | 90 (≈ 297 µM) | 100 (≈ 330 µM) | – | – |
| CN1CCC(n2cc(CN3CCc4sccc4C3)nn2)CC1 | – | 40 (≈ 126 µM) | inactive | – | 40 (≈ 126 µM) | 70 (≈ 220 µM) | – | inactive | – |
| Clc1ccc(COC(Cn2ccnc2)c2ccc(Cl)cc2Cl)c(Cl)c1 (stereo not given) [MICONAZOLE] | – | 25 (≈ 60.1 µM) | – | 25 (≈ 60.1 µM) | 12.5 (≈ 30 µM) | 25 (≈ 60.1 µM) | 12.5 (≈ 30 µM) | – | – |
| CC(=O)N1CCC(n2cc(CN3CCc4sccc4C3)nn2)CC1 | – | 40 (≈ 116 µM) | – | – | – | 45 (≈ 130 µM) | 100 (≈ 289 µM) | inactive | inactive |
| CS(=O)(=O)N1CCC(n2cc(CN3CCc4sccc4C3)nn2)CC1 | – | 50 (≈ 131 µM) | – | 25 (≈ 65.5 µM) | 40 (≈ 105 µM) | 30 (≈ 78.6 µM) | 40 (≈ 105 µM) | – | – |
